Entries after “also recorded” stand apart in the source; their conditions may differ.
What was measured:
[1] = system: iceberg and Romaine lettuce midribs; assay: Objective pink rib severity: a* value by RGB image analysis of cut sites; format: in vivo
Description: (§1) In all tests, experimental setup began immediately upon arrival to the laboratory. 90 outer leaves were randomly selected from 18 to 22 lettuce heads that met commercial and damage-free quality standards. A midrib segment (12.5 cm) was excised from the center of each leaf and excess leaf blade tissue was trimmed parallel to the midrib. This procedure was adapted from the wounding procedure of Cantwell (2016). Each midrib was then partially sliced transversally at 1.3-cm increments along the midrib. Midribs (n=15) were immediately immersed for 30 s in one of five treatment solutions: deionized water (wounded control), L-cysteine (4.1 mM), naringenin (1.8 mM) with 20% dimethyl sulfoxide (DMSO), serotonin (2.8 or 5.7 mM) or melatonin (4.3 mM) with 0.50% DMSO. Immediately following immersion, the midribs for each treatment were patted dry using paper towels and placed (n=5) in a breathable, high-density polyethylene bag (n=3) (Narrow Profile Produce Bags [14×18 inches] Model No. S-19156, Uline®, Pleasant Prairie, WI). Unwounded control midribs were stored in the same manner. To allow for direct comparison, each cut site on each midrib was assigned an initial discoloration value on day 1 based on the coloration of the rib. Samples were stored at 5° C. with 95-98% relative humidity (RH) for 5 d, simulating commercial storage.
Objective evaluations were also made after 1, 3, and 5 d by capturing an image of each wounded midrib using a digital camera (Nikon D5200, Nikon, Melville, NY, USA) under full spectrum LED lighting (Sunco Lighting, Valencia, CA, USA) with 4100 Lumens at a distance of 1.12 m. Only unwounded and treated (L-cysteine or melatonin) midribs from Test 1 were measured using this method. The camera settings were on manual mode ISO400, shutter speed 1/125, aperture 5.6, and no zoom or flash; distance from the tissue was approximately 18 inches. The white balance of the camera was set with a gray card prior to each imaging session. GNU Image Manipulation Program (GIMP, version 2.10.14; The GIMP Project c/o GNOME Foundation, Orinda, CA, USA) was used to isolate pixels from an area 1 mm in width along the length of each cut site. Because a cut site is required as a guide for pixel extraction, no data was collected from images of the unwounded midribs.
Isolated pixels were converted from the RGB to the L*a*b* color space (Commission Internationale de l'Elcairage) with the “convertColor” function in R version 4.0.0 (R Core Team, 2020), using Illuminant D65 as the white reference. The mean a* value was calculated for each group of isolated cut site pixels at each time point. In the L*a*b* color space, […] the degree of redness (+) or greenness (−); thus, the mean a* at each cut site quantified the severity of pink rib discoloration. R was also applied to subset the data, to ensure that the cut sites chosen for further analysis had similar initial color. The a* values ranged from −3 to 0 for iceberg lettuce and −6 to −3 for Romaine.
The imaging data (a* value), enzyme activity (PAL and PPO), and metabolite (chlorogenic acid) results were expressed as mean±standard error and analyzed by lettuce type (iceberg or Romaine). For imaging data, an unpaired t-test was used to identify differences within a treatment throughout storage and among treatment groups at each time point. Treatment groups were defined as wounded, unwounded, L-cysteine, and melatonin. […] Analyses of variance were performed for PAL, PPO, and metabolite analyses using SAS software (version 9.4; SAS Institute, Cary, NC) to identify differences among treatment groups. Differences among treatments groups were separated by Tukey's Honest Significant Difference (HSD) test with a confidence level of 95%. The correlation between visual rating and a* value was evaluated for significance via an F-test, from which the P-value of the correlation was calculated.

[2] = system: chlorogenic acid formation in lettuce midribs; assay: Chlorogenic acid concentration in treated wounded midribs (HPLC); format: in vivo, lettuce (iceberg, Romaine); conditions: 5 d at 5° C.; for chlorogenic acid concentration: L-cysteine 4.1 mM or melatonin 4.3 mM; for effect on chlorogenic acid concentration: iceberg and Romaine, vs wounded
Description: as §1
Unwounded, wounded, and compound-treated wounded midrib samples were collected for untargeted metabolite analysis to identify global metabolite changes in response to melatonin application and targeted metabolite analysis to quantify chlorogenic acid a major caffeoyl compound in lettuce. For both targeted and untargeted metabolite analyses, fresh samples (500-800 mg) of the midribs from each treatment (n=3) were weighed, then immediately frozen in liquid nitrogen and stored at −80° C. for subsequent metabolite extraction. Frozen samples were extracted with a 50% methanol extraction solution containing a 1:1 (v:v) of methanol with deionized water. Samples were completely submerged in a 1:1.5 (w:v) of the sample weight (mg) to extraction solution volume (μL), respectively, and incubated at 65° C. for 90 min and then centrifuged at 9660×g for 10 min (MC-12 High Speed Micro Centrifuge, Benchmark Scientific, Edison, NJ). The supernatant was transferred to a new tube and filtered with a 0.45 μm filter (Choice, Thermo Scientific, Wilmington, DE). An aliquot of 400 μL was vacuum-dried.
For chlorogenic acid quantification, vacuum-dried samples were resuspended with 50 μL of 50% methanol. A 10 μL volume of extract was analyzed on an UltiMate 3000 High Performance Liquid Chromatography (HPLC) system (Thermo Fisher Scientific, Ward Hill, MA, USA) equipped with a diode array detector (DAD) in the UV-VIS region 200 to 500 nm. The compounds were separated on an Acclaim™ RSLC PA2 column (150 mm×2.1 mm; 2.2 μm) (Thermo Fisher Scientific, Ward Hill, MA, USA) coupled with a C18 guard column (10 mm×3 mm; 5 μm). The mobile phase consisted of solvent A (0.1% formic acid (v/v) in water) and solvent B (100% acetonitrile), and the gradient as follows: 5% to 20% increase of solvent B at 0.3 to 0.4 min, 20% to 25% increase solvent B at 5.25 to 12.5 min, 25% to 95% increase solvent B at 12.5 to 16.5 min, and 95% solvent B at 16.5 to 20 min. The flow rate was 0.4 mL min^−1 and the column temperature was 40° C. The level of chlorogenic acid was quantified based on the peak area at 328 nm and the standard curve using authentic standard (Sigma Aldrich; St. Louis, MO, USA).
The imaging data (a* value), enzyme activity (PAL and PPO), and metabolite (chlorogenic acid) results were expressed as mean±standard error and analyzed by lettuce type (iceberg or Romaine). For imaging data, an unpaired t-test was used to identify differences within a treatment throughout storage and among treatment groups at each time point. Treatment groups were defined as wounded, unwounded, L-cysteine, and melatonin. […]

Compound | change of a* value ([1]; L-cysteine 4.1 mM, Romaine, after 3 d (P=0.0242)) | change of a* value ([1]; L-cysteine 4.1 mM, iceberg, after 3 d (P=0.0242)) | change of a* value ([1]; L-cysteine 4.1 mM, iceberg, after 5 d (P=0.00059)) | chlorogenic acid concentration ([2]; Romaine) [µg/g] | effect on chlorogenic acid concentration [2] | chlorogenic acid concentration ([2]; iceberg) [µg/g] | change of a* value ([1]; melatonin 4.3 mM, Romaine, between days 3 and 5) | a* value versus control ([1]; melatonin 4.3 mM, Romaine, day 5, control mean 1.49) | mean a* value ([1]; melatonin 4.3 mM, Romaine, day 5 at 5° C.) | change of a* value ([1]; melatonin 4.3 mM, iceberg, throughout 5 d storage) | a* values versus control treatments, overall ([1]; melatonin, iceberg and Romaine)
N[C@@H](CS)C(=O)O [L-cysteine] | increase | increased | increased | 3.11 | neither L-cysteine nor melatonin significantly reduced chlorogenic acid concentration | 1.55 | – | – | – | – | –
COc1ccc2[nH]cc(CCNC(C)=O)c2c1 [melatonin] | – | – | – | 3.11 | neither L-cysteine nor melatonin significantly reduced chlorogenic acid concentration; also recorded: neither enzyme activity (PAL or PPO) nor chlorogenic acid concentration were impacted; also recorded: did not significantly affect PAL or PPO enzyme activities nor formation of chlorogenic acid | 1.55 | increasing | no longer significantly different | −0.67 | did not increase throughout storage | significantly lower a* values
